US20260184663A1, “INDENE COMPOUNDS, PHARMACEUTICAL COMPOSITIONS THEREOF, AND THEIR THERAPEUTIC APPLICATIONS” (NucMito Pharmaceuticals co. Ltd., priority 2022, published 2026)

Key:
Format in all cases: cell-based
[1] = tested on: MDA-MB-231 (breast cancer); assay: Antiproliferative activity (CCK-8 cell viability), MDA-MB-231; settings: Homo sapiens, 72 h, read-out: Antiproliferative activity in cancerous cells, MDA-MB-231 (inhibition of cell growth); for inhibition at 3.3 µM: Compound concentration: 3.3 μM; for inhibition at 10 µM: Compound concentration: 10 μM; for inhibition at 30 µM: Compound concentration: 30 μM
Method in brief: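 In this CCK-8 viability assay, MDA-MB-231 cells maintained in Dulbecco's modified Eagle's medium containing 10% fetal bovine serum were placed in 96-well plates (2,000-5,000 cells/well) and treated with compound for 72 h at 37° C. A 4 h incubation with 10 μL CCK-8 followed, plates were read at 450 nm, and viability was expressed against DMSO vehicle wells across replicates.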

[2] = tested on: HepG2 (liver cancer); assay: Antiproliferative activity (CCK-8 cell viability), HepG2; settings: Homo sapiens, 72 h, read-out: Antiproliferative activity in cancerous cells, HepG2 (inhibition of cell growth); for inhibition at 3.3 µM: Compound concentration: 3.3 μM; for inhibition at 10 µM: Compound concentration: 10 μM; for inhibition at 30 µM: Compound concentration: 30 μM
Method in brief: (§1)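 Cells were seeded at 2,000-5,000/well (HeLa in MEM, HepG2 and SW480 in DMEM, A549 in F-12K, all with 10% FBS) and treated with compound at 3.3, 10 or 30 μM for 72 h at 37° C. CCK-8 was added for 4 h, absorbance was read at 450 nm, and viability was expressed relative to DMSO-treated wells.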

[3] = tested on: SW480 (colon cancer); assay: Antiproliferative activity (CCK-8 cell viability), SW480; settings: Homo sapiens, 72 h, read-out: Antiproliferative activity in cancerous cells, SW480 (inhibition of cell growth); for inhibition at 3.3 µM: Compound concentration: 3.3 μM; for inhibition at 10 µM: Compound concentration: 10 μM; for inhibition at 30 µM: Compound concentration: 30 μM
Method in brief: as §1

[4] = tested on: B16F10 (malignant melanoma); assay: Antiproliferative activity (CCK-8 cell viability), B16F10; settings: Mus musculus, 72 h, read-out: Antiproliferative activity in cancerous cells, B16F10 (inhibition of cell growth); for inhibition at 3.3 µM: B16-F10, Compound concentration: 3.3 μM; for inhibition at 10 µM: B16-F10, Compound concentration: 10 μM; for inhibition at 30 µM: B16-F10, Compound concentration: 30 μM
Method in brief: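 Attached B16F10 cells in 96-well plates were incubated with compound at 37° C for 72 h, followed by 10 μL CCK-8 reagent per well and a further 4 h incubation. A multi-well plate reader measured absorbance at 450 nm. Percent viability across replicates was calculated against DMSO vehicle-treated cells.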

[5] = tested on: A431 (epidermoid carcinoma); assay: Antiproliferative activity (CCK-8 cell viability), A431; settings: Homo sapiens, 72 h, read-out: Antiproliferative activity in cancerous cells, A431 (inhibition of cell growth); for inhibition at 3.3 µM: A-431, Compound concentration: 3.3 μM; for inhibition at 10 µM: A-431, Compound concentration: 10 μM; for inhibition at 30 µM: A-431, Compound concentration: 30 μM
Method in brief: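 Cell viability of compound-treated A431 cells was measured with a Cell Counting Kit-8. Each well received 10 μL of CCK-8 after 72 h of compound exposure, followed by 4 h incubation at 37° C. and a 450 nm plate-reader measurement. Percent viability was calculated relative to DMSO controls across replicates.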

[6] = tested on: A549 (lung adenocarcinoma); assay: Antiproliferative activity (CCK-8 cell viability), A549; settings: Homo sapiens, 72 h, read-out: Antiproliferative activity in cancerous cells, A549 (inhibition of cell growth); for inhibition at 3.3 µM: Compound concentration: 3.3 μM; for inhibition at 10 µM: Compound concentration: 10 μM; for inhibition at 30 µM: Compound concentration: 30 μM
Method in brief: as §1

[7] = tested on: HeLa (cervical cancer); assay: Antiproliferative activity (CCK-8 cell viability), HeLa; settings: Homo sapiens, 72 h, read-out: Antiproliferative activity in cancerous cells, HELA (inhibition of cell growth); for inhibition at 3.3 µM: Compound concentration: 3.3 μM; for inhibition at 10 µM: Compound concentration: 10 μM; for inhibition at 30 µM: Compound concentration: 30 μM
Method in brief: as §1

Row | Compound | inhibition at 3.3 µM [1] | inhibition at 10 µM [1] | inhibition at 30 µM [1] | inhibition at 3.3 µM [2] | inhibition at 10 µM [2] | inhibition at 30 µM [2] | inhibition at 3.3 µM [3] | inhibition at 10 µM [3] | inhibition at 30 µM [3] | inhibition at 3.3 µM [4] | inhibition at 10 µM [4] | inhibition at 30 µM [4] | inhibition at 3.3 µM [5] | inhibition at 10 µM [5] | inhibition at 30 µM [5] | inhibition at 3.3 µM [6] | inhibition at 10 µM [6] | inhibition at 30 µM [6] | inhibition at 3.3 µM [7] | inhibition at 10 µM [7] | further results
1 | CC1=C(CC(=O)O)c2cc(F)ccc2/C1=C\c1ccc(OC2CCN(C(=O)OC(C)(C)C)CC2)cc1 [C201, (Z)-2-(1-(4-((1-(Tert-butoxycarbonyl)piperidin-4-yl)oxy)benzylidene)-5-fluoro-2-methyl-1H-inden-3-yl)acetic acid] | < 30% | ≥ 50% | ≥ 50% | < 30% | ≥ 50% | ≥ 50% | < 30% | ≥ 50% | ≥ 50% | < 30% | ≥ 50% | ≥ 50% | ≥ 50% | ≥ 50% | ≥ 50% | < 30% | ≥ 50% | ≥ 50% | < 30% | ≥ 50% | inhibition at 30 µM [7]: ≥ 50%
2 | CC1=C(CC(=O)O)c2cc(F)ccc2/C1=C\c1ccc(OC2CCNCC2)cc1 [C202, (Z)-2-(5-Fluoro-2-methyl-1-(4-(piperidin-4-yloxy)benzylidene)-1H-inden-3-yl)-acetic acid] | < 30% | < 30% | ≥ 50% | < 30% | < 30% | ≥ 50% | < 30% | < 30% | < 30% | < 30% | < 30% | ≥ 50% | ≥ 50% | ≥ 50% | ≥ 50% | < 30% | < 30% | 30 to 50% | < 30% | 30 to 50% | inhibition at 30 µM [7]: ≥ 50%
3 | CC(=O)CC(=O)N1CCC(Oc2ccc(/C=C3/C(C)=C(CC(=O)O)c4cc(F)ccc43)cc2)CC1 [C203, (Z)-2-(5-Fluoro-2-methyl-1-(4-((1-(3-oxobutanoyl)piperidin-4-yl)oxy)-benzylidene)-1H-inden-3-yl)acetic acid] | < 30% | < 30% | < 30% | < 30% | < 30% | < 30% | < 30% | < 30% | < 30% | < 30% | ≥ 50% | ≥ 50% | ≥ 50% | ≥ 50% | ≥ 50% | 30 to 50% | < 30% | < 30% | < 30% | < 30% | inhibition at 30 µM [7]: < 30%
4 | CC1=C(CC(=O)O)c2cc(F)ccc2/C1=C\c1ccc(OC2CCC(F)(F)CC2)cc1 [C205, (Z)-2-(1-(4-((4,4-Difluorocyclohexyl)oxy)benzylidene)-5-fluoro-2-methyl-1H-inden-3-yl)acetic acid] | ≥ 50% | ≥ 50% | ≥ 50% | < 30% | 30 to 50% | ≥ 50% | 30 to 50% | 30 to 50% | ≥ 50% | ≥ 50% | ≥ 50% | ≥ 50% | < 30% | 30 to 50% | ≥ 50% | < 30% | ≥ 50% | ≥ 50% | < 30% | ≥ 50% | inhibition at 30 µM [7]: ≥ 50%
5 | CC1=C(CC(=O)O)c2cc(F)ccc2/C1=C\c1cccc(OC2CCC(F)(F)CC2)c1 [C206, (Z)-2-(1-(3-((4,4-Difluorocyclohexyl)oxy)benzylidene)-5-fluoro-2-methyl-1H-inden-3-yl)acetic acid] | ≥ 50% | ≥ 50% | ≥ 50% | < 30% | ≥ 50% | ≥ 50% | 30 to 50% | ≥ 50% | ≥ 50% | ≥ 50% | ≥ 50% | ≥ 50% | 30 to 50% | 30 to 50% | ≥ 50% | < 30% | ≥ 50% | ≥ 50% | < 30% | ≥ 50% | inhibition at 30 µM [7]: ≥ 50%
6 | CC1=C(CC(=O)O)c2cc(F)ccc2/C1=C\c1cccc(C(F)(F)c2ccccc2)c1 [C301, (Z)-2-(1-(3-(Difluoro(phenyl)methyl)benzylidene)-5-fluoro-2-methyl-1H-inden-3-yl)acetic acid] | ≥ 50% | ≥ 50% | ≥ 50% | < 30% | < 30% | ≥ 50% | < 30% | < 30% | ≥ 50% | 30 to 50% | ≥ 50% | ≥ 50% | < 30% | < 30% | ≥ 50% | < 30% | < 30% | ≥ 50% | < 30% | ≥ 50% | inhibition at 30 µM [7]: ≥ 50%
7 | CC1=C(CC(=O)O)c2cc(F)ccc2/C1=C\c1ccc(C(=O)c2cc3ccccc3s2)cc1 [C303, (Z)-2-(1-(4-(Benzo[b]thiophene-2-carbonyl)benzylidene)-5-fluoro-2-methyl-1H-inden-3-yl)acetic acid] | ≥ 50% | ≥ 50% | ≥ 50% | 30 to 50% | ≥ 50% | ≥ 50% | 30 to 50% | ≥ 50% | ≥ 50% | ≥ 50% | ≥ 50% | ≥ 50% | < 30% | ≥ 50% | ≥ 50% | 30 to 50% | ≥ 50% | ≥ 50% | 30 to 50% | ≥ 50% | inhibition at 30 µM [7]: ≥ 50%
